Assay results taken from patent publication US20240353393A1, “LABEL FREE DRUG AND TISSUE BIOPSY SCREENING/DIAGNOSTIC IN CANCER” (University of Virginia Patent Foundation, priority 2023, published 2024).

How the values were obtained:
Assay type in all cases: cell-based
PCa cells [1] = assay: FLIRR (NAD(P)H-a2%/FAD-a1%) by FLIM after doxorubicin treatment; settings: as early as 15 mins of treatment, real time, before induction of apoptosis
Text: The enzyme-bound fractions of NAD (P) H (a2%) and FAD (a1%) and their lifetimes (tm) are used to quantify these metabolic changes, in particular with our novel NAD (P) H-a2%/FAD-a1% FLIM-based redox ratio. The commonly used intensity-based redox ratio [NAD (P) H/FAD], based predominantly on signals driven by mitochondrial OXPHOS is defined as a reduction of this ratio, due to the conversion of fluorescent NAD (P) H to non-fluorescent NAD+ and conversion of non-fluorescent FADH2 to fluorescent FAD. […]
FLIM instrumentation can include a 3-channel FLIM imaging system of a Zeiss LSM 780 confocal/multiphoton (MP) laser scanning system coupled to the Zeiss inverted epi-fluorescence microscope, which is controlled with the ZEN software (Carl Zeiss, Inc). […] The fluorescence decay per pixel was measured using 3-channel SPC-150 TCSPC board (Becker & Hickl, GmbH) where the SPCM software was used to acquire the FLIM data (v. 8.91). […]
The ratio of the bound NAD (P) H to bound FAD, the Fluorescence Lifetime Imaging Redox Ratio (FLIRR), is an optical biomarker to determine a cell's primary metabolic pathway with higher FLIRR values often consistent with a shift towards oxidative phosphorylation and lower values often associated with a shift towards glycolysis.

PCa cells [2] = assay: Trp-NAD(P)H FRET interaction by FLIM-FRET after doxorubicin treatment; settings: as early as 15 mins of treatment, real time, before induction of apoptosis
Text: Auto-fluorescent biomarker, tryptophan (Trp), has also been linked to cancer investigations. Trp, an essential amino acid, is a precursor of niacin, which in turn is a precursor of NAD (P) H. Increased Trp catabolismand increased indoleamine 2,3-dioxygenase (IDO) activity in the kynurenine pathway are linked to cancer development and progression. Therefore, probing Trp is clinically relevant. In general, Trp fluorescence intensity and lifetime mainly provide information on the protein composition, protein structure of which they are a part of and changes in overall cellular microenvironment. Trp is therefore used as a marker for protein abundance. […] In FLIM-FRET measurements, FRET events are identified if there is reduction in the donor lifetime, because of quenching of its fluorescence in the presence of the acceptor. […] The efficiency of energy transfer or E % is calculated from the following equation E=1-τm/τ0, where τm is the mean lifetime of Trp in cells and τ0=3.1 ns of unquenched Trp lifetime measured from Trp in solution. […]
FLIM instrumentation can include a 3-channel FLIM imaging system of a Zeiss LSM 780 confocal/multiphoton (MP) laser scanning system coupled to the Zeiss inverted epi-fluorescence microscope, which is controlled with the ZEN software (Carl Zeiss, Inc). […]

AA prostate cancer cells = assay: FLIRR vs intensity-based redox ratio, CoCl2 pretreatment and glucose stimulation

Compound	FLIRR of metabolic co-enzymes NAD(P)H & FAD (PCa cells [1])	Trp-NAD(P)H FRET interactions (PCa cells [2])	NADH-a2%/FAD-a1% ratio (AA prostate cancer cells)
COc1cccc2c1C(=O)c1c(O)c3c(c(O)c1C2=O)C[C@@](O)(C(=O)CO)C[C@@H]3O[C@H]1C[C@H](N)[C@H](O)[C@H](C)O1 [doxorubicin]	increase	increase	–
[Cl-].[Cl-].[Co+2] [CoCl2]	–	–	decrease
